In ChEMBL document CHEMBL4725449, “Brain Penetrable Inhibitors of Ceramide Galactosyltransferase for the Treatment of Lysosomal Storage Disorders” (ACS Med Chem Lett, 2020):
In brackets after ≈: the same amount, converted by molar mass.

Assays:
[1] = target: T1, 2-hydroxyacylsphingosine 1-beta-galactosyltransferase (Homo sapiens, UniProt Q16880); experiment: Inhibition of UGT8 in human OE19 cells assessed as redcution in SFT accumulation measured after 72 hrs by LC-MS/MS analysis; type: cell-based
T1 sequence (Q16880 whole entry): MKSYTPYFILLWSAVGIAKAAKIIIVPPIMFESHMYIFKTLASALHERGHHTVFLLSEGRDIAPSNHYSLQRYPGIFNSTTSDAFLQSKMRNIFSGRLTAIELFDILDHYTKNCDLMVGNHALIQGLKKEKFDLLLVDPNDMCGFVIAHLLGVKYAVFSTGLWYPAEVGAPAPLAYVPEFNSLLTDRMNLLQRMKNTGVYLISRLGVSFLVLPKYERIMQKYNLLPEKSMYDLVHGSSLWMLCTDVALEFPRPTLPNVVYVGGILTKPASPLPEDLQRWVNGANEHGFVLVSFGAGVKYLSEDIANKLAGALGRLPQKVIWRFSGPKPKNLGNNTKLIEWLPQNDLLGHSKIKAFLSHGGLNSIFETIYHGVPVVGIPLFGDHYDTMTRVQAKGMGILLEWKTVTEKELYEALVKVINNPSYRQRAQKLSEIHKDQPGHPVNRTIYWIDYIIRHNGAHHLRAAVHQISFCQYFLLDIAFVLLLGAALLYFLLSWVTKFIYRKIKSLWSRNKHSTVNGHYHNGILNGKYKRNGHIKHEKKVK

[2] = target: T1, 2-hydroxyacylsphingosine 1-beta-galactosyltransferase; experiment: Inhibition of UGT8 in human OE19 cells assessed as redcution in GalCer accumulation measured after 72 hrs by LC-MS/MS analysis; type: cell-based
[3] = Intrinsic clearance in human liver microsomes; type: ADME, Microsome; details: read-out: CLH
[4] = Apparent permeability of the compound at pH 6.5 to 7.4 by PAMPA; type: ADME
[5] = Distribution coefficient, log D of the compound; type: physicochemical; details: octanol/water
[6] = Drug uptake in C57BL/6 mouse brain at 3 mg/kg, iv measured at 5 mins; type: ADME, organism-based; details: read-out: Drug uptake
[7] = Ratio of drug concentration in brain to plasma in C57BL/6 mouse measured at 5 mins; type: ADME, organism-based; details: read-out: BPR
[8] = Thermodynamic solubility of the compound […] at pH 7.4; type: physicochemical; details: read-out: Therm_solubility
[9] = Drug uptake in C57BL/6 mouse brain at 3 mg/kg, iv measured at 1 hr; type: ADME, organism-based; details: read-out: Drug uptake
[10] = Ratio of drug concentration in brain to plasma in C57BL/6 mouse measured at 1 hr; type: ADME, organism-based; details: read-out: BPR

| Structure (SMILES) | IC50 [1] [nM] | IC50 [2] [nM] | microsomal CLint [3] [µL/min/mg] | Papp [4] [×10⁻⁶ cm/s] | logD [5] | concentration at 5 min [6] [ng/mL] | Kp at 5 min [7] | solubility thermodynamic [8] [µM] | concentration at 1 h [9] [ng/mL] | Kp at 1 h [10] |
| --- | --- | --- | --- | --- | --- | --- | --- | --- | --- | --- |
| CNC(=O)c1csc2c(C(F)(F)F)cc(N3CCN(CC(=O)NC(C)C)CC3)nc12 | 67 | 90 | – | – | – | – | – | – | – | – |
| CNC(=O)c1csc2c(C(F)(F)F)cc(N3CCN(C(C)C(=O)NC4CC4)CC3)nc12 (stereo not drawn) | 170 | 360 | 34 | 75 | 3.3 | 43 | 0.01 | – | – | – |
| CC[C@H](C)NC(=O)OC1CCN(c2cc(C(F)(F)F)c3scc(C(=O)NC)c3n2)CC1 | 0.9 | 0.4 | – | – | 4.56 | 2370 | 1.45 | < 0.5 | 192 | 0.76 |
| CNC(=O)c1csc2c(C(F)(F)F)cc(N3CCN(CCOC(C)C)CC3)nc12 | 330 | 200 | 96 | > 80 | 3.6 | 3000 | 1.8 | – | 1700 | 1 |
| CNC(=O)c1csc2c(C(F)(F)F)cc(N3CC(NC(=O)OCC4CC4)C3)nc12 | 48 | 43 | – | – | – | – | – | – | – | – |
| CNC(=O)c1csc2c(C(F)(F)F)cc(N3CCC(OC(=O)NC(C)C)CC3)nc12 | 2 | 2 | 46 | > 80 | 4.35 | 2700 | 1.88 | – | 302 | 1.03 |
| CNC(=O)c1csc2c(C(F)(F)F)cc(N3CCC(OC(=O)NCC4CC4)CC3)nc12 | 1 | 3 | 59 | > 80 | 4.2 | 2140 | 0.91 | – | 132 | 0.31 |
| CNC(=O)c1csc2c(C(F)(F)F)cc(N3CCC(OC(=O)N4CC(CN(C)C)C4)CC3)nc12 | 980 | – | – | – | – | – | – | 420 (≈ 210 µg/mL) | – | – |
| CNC(=O)c1csc2c(C(F)(F)F)cc(N3CCC(OC(=O)NCCN4CCCC4)CC3)nc12 | 510 | – | – | – | – | – | – | 430 (≈ 215 µg/mL) | – | – |
| CNC(=O)c1csc2c(C(F)(F)F)cc(N3CCC(OC(=O)NCCOC(F)(F)F)CC3)nc12 | 0.4 | 0.6 | – | – | 4.7 | 1640 | 0.59 | < 0.5 | 128 | 0.24 |
| CCC(=O)c1csc2c(C(F)(F)F)cc(N3CCN(CC(=O)NC(C)C)CC3)nc12 | 97 | 120 | 36 | > 80 | 3.6 | 1400 | 0.83 | – | 270 | 0.72 |
| CNC(=O)c1csc2c(C(F)(F)F)cc(N3CCN(CC(O)COC(C)(C)C)CC3)nc12 (stereo not drawn) | 190 | 350 | 51 | 78 | 3.7 | 1700 | 0.93 | – | 210 | 0.35 |
| CNC(=O)c1csc2c(C(F)(F)F)cc(N3CCC(OC(=O)N4CC(OC(F)(F)F)C4)CC3)nc12 | 1.7 | 2.9 | 41 | > 80 | 5.13 | 3430 | 1.67 | < 0.5 | 316 | 0.59 |
| CNC(=O)c1csc2c(C(F)(F)F)cc(N3CCN(C(=O)COC(C)C)CC3)nc12 | 660 | 450 | 42 | 69 | 3.1 | 228 | 0.07 | – | 8 | 0.06 |
| CNC(=O)c1csc2c(C(F)(F)F)cc(N3CCC(OC(=O)N[C@@H](C)C4CC4)CC3)nc12 | 0.9 | 1.1 | 70 | > 80 | 4.29 | 1480 | 0.76 | < 0.5 | 143 | 0.42 |
| CNC(=O)c1csc2c(C(F)(F)F)cc(N3CC(OC(=O)NCC4CC4)C3)nc12 | 200 | – | – | – | – | – | – | – | – | – |
| CNC(=O)c1csc2c(C(F)(F)F)cc(N3CCC(NC(=O)OCC4CC4)CC3)nc12 | 18 | 37 | – | – | – | – | – | – | – | – |
| CC(C)NC(=O)CN1CCN(c2cc(C(F)(F)F)c3scc(C(=O)N4CCC4)c3n2)CC1 | 640 | 320 | 27 | 66 | 2.7 | – | – | – | – | – |
| CNC(=O)c1csc2c(C(F)(F)F)cc(N3CCC(OC(=O)NCC4CC4)C3)nc12 (stereo not drawn) | 610 | – | – | – | – | – | – | – | – | – |
| CNC(=O)c1csc2c(C(F)(F)F)cc(N3CCN(CC(=O)C(C)(C)C)CC3)nc12 | 610 | 1400 | 5 | > 80 | 3.3 | 1100 | 0.81 | – | 170 | 0.54 |
